Where a SMILES comes first, the peptide text is derived from it.
Assays:
[1] = as much as; cited from earlier work
[2] = Rate of solubility: time to complete dissolution in room temperature distilled water (10 ml, pH 5.7, constant stirring); Solubility Factor derived from it; assay type: physicochemical; details: APM alone (control); for Rate of Solubility (time until complete dissolution): in 10 ml room temperature distilled water, pH 5.7, magnetic stirrer, B3: incomplete dissolution after this time
Procedure: The following represents a broad ratio of systems tested in order to evaluate the effect protein hydrolysates have on the rate of solubility of APM.
All systems were prepared by dissolving the ingredients in water and freeze-drying. Evaluations were made in room temperature distilled water (10 ml) having a pH of 5.7 with constant stirring by a magnetic stirrer. The time was clocked from the instant the powder hit the water until complete dissolution.
Samples A1 - A4 consisted of 1 g. each in 10 ml; samples B1 - B4 (controls) consisted of the amount indicated, also in 10 ml., the total amount of APM in the controls being equivalent to the respective test samples (A1 - A4). Where applicable, the ratio expressed is of APM to soy isolate respectively.
A convenient way of expressing the change in the solubility rate of a given amount of sweetener after combining with protein hydrolysate and dried is called the "Solubility Factor."
This is expressed as follows: [formula] the higher the SF value, the more appreciable the improvement in solubility.

Row | Rate of Solubility (time until complete dissolution) [2] [min] | Compound | further results
1 | – | COC(=O)[C@H](Cc1ccccc1)NC(=O)[C@@H](N)CC(=O)O [APM, L-aspartyl-L-phenylalanine methyl ester] (H-Asp-Phe-OMe) | sweetness relative to sucrose [1]: ≤ 200 times as sweet as sucrose
2 | 7 | COC(=O)[C@H](Cc1ccccc1)NC(=O)[C@@H](N)CC(=O)O [Sample B1, L-aspartyl-L-phenylalanine methyl ester] (H-Asp-Phe-OMe) | –
3 | 11 | COC(=O)[C@H](Cc1ccccc1)NC(=O)[C@@H](N)CC(=O)O [Sample B2, L-aspartyl-L-phenylalanine methyl ester] (H-Asp-Phe-OMe) | –
4 | > 50 | COC(=O)[C@H](Cc1ccccc1)NC(=O)[C@@H](N)CC(=O)O [Sample B3, L-aspartyl-L-phenylalanine methyl ester] (H-Asp-Phe-OMe) | –
5 | – | COC(=O)[C@H](Cc1ccccc1)NC(=O)[C@@H](N)CC(=O)O [Sample B4, L-aspartyl-L-phenylalanine methyl ester] (H-Asp-Phe-OMe) | Rate of Solubility (incomplete dissolution after) ([2]; 200 mgs. in 10 ml room temperature distilled water, pH 5.7): > 1 h

Source: patent publication US4031259A, “Process of preparing nutritive sweetening compositions” (General Foods Corporation, priority 1975, dated 1977)
